For data set [1], the system named is Influenza A virus. Briefly: Antiviral activity against Influenza A virus A/WSN/33(H1N1) infected in MDCK cells assessed as reduction in virus induced cytopathic effect measured 48 hrs post infection by MTT assay. Type of data set: functional, organism-based. (Protection from cytopathic effect is a common read-out in antiviral testing.)
The nature of data set [2]: Selectivity index, ratio of CC50 for cytotoxicity against MDCK cells to EC50 for antiviral activity against Influenza A virus A/WSN/33(H1N1) infected in MDCK cells. It counts as toxicity, cell-based. The following applies: dog, read-out: Ratio CC50/EC50.
Data set [3] can be described thus: Cytotoxicity against MDCK cells assessed as reduction in cell viability incubated for 48 hrs by MTT assay. It counts as toxicity, cell-based, Canis lupus familiaris. Particulars: dog. For orientation: Tetrazolium assays rely on reduction of a dye to a coloured formazan, in cell work by metabolically active cells.
Data set [4] deals with Polymerase acidic protein (Influenza A virus (A/Puerto Rico/8/1934(H1N1)), UniProt P03433). Kind of data set: Inhibition of Influenza A virus N-terminal domain of PA endonuclease using 6FAM-TGGCAATATCAGCTCCACA-MGBNFQ as fluorescent substrate by FRET analysis.
Data set [5] deals with Influenza A virus. Kind of data set: Antiviral activity against Influenza A virus A/WSN/33(H1N1) infected in human A549 cells assessed as reduction in nucleoprotein expression at 5 to 20 uM measured 24 hrs post infection by Western blot analysis. Type of data set: functional, organism-based. The following applies: dose 5-20 µM. (In western blotting, separated proteins are transferred to a membrane and probed.)

Data set [6] concerns Influenza A virus. Briefly: Antiviral activity against Influenza A virus A/WSN/33(H1N1) infected in human A549 cells assessed as reduction in nucleoprotein mRNA expression at 5 to 20 uM measured 24 hrs post infection by qRT-PCR analysis. It counts as functional, organism-based. The following applies: dose 5-20 µM.
Data set [7] has as its system Influenza A virus. Kind of data set: Antiviral activity against Influenza A virus A/WSN/33(H1N1) infected in MDCK cells assessed as reduction in nucleoprotein […] expression at 20 uM measured after 0 to 10 hrs by Western blot based time-of-addition assay. Particulars: time 0-10 hrs. It counts as functional, organism-based.
In data set [8] the test system is Influenza A virus. Kind of data set: Antiviral activity against Influenza A virus A/WSN/33(H1N1) infected in MDCK cells assessed as inhibition of virus replication and translation by measuring reduction in nucleoprotein […] expression at 20 uM measured after 2 to 8 hrs by Western blot based time-of-addition assay. It counts as functional, organism-based. The following applies: time 2-8 hrs.

Data set [9] concerns Influenza A virus. Briefly: Antiviral activity against Influenza A virus A/WSN/33(H1N1) infected in MDCK cells assessed as distribution of PAN protein expression in nucleus and cytoplasm measured 24 hrs post infection by DAPI staining based microscopic analysis. It counts as functional, organism-based.

The source made the active and inactive calls. The rule behind the calls is not given here. Bounds are passed on as bounds.

In general, EC50 refers to the concentration that produces a half-maximal response. What is called CC50 is the concentration giving 50% cytotoxicity. Usually IC50 stands for the point on the concentration scale where inhibition reaches its midpoint. High values mean a need for much substance, low ones inhibition by little substance.

As to `O=CN1[C@H](C(=O)Oc2ccc(Br)cc2)Cc2cc(O)c(O)cc2[C@@H]1Cc1ccc(O)c(O)c1`, the 50% effective concentration (EC50) in [1] was determined as 3.23 µM. The selectivity ratio in data set [2] was found to be 9.8. For the same molecule, the CC50 at 48 h in [3] was 32.1 µM.
Regarding `O=CN1[C@H](C(=O)Oc2ccc(Cl)cc2Cl)Cc2cc(O)c(O)cc2[C@@H]1Cc1ccc(O)c(O)c1`, the EC50 in [1] was 3.76 µM. In addition, the selectivity ratio in [2] was found to be 5.7. For the same molecule, the CC50 at 48 h in data set [3] is 21.4 µM.
With `CCC(CC)[C@H](NC(C)=O)[C@@H]1[C@H](O)[C@@H](C(=O)O)C[C@H]1NC(=N)N` [PERAMIVIR ANHYDROUS], the selectivity ratio in data set [2] is > 19. In [3], the CC50 at 48 h is > 100 µM.
For the molecule `COC(=O)[C@@H]1Cc2cc(O)c(O)cc2[C@H](Cc2ccc(O)c(O)c2)N1C(C)=O`, the EC50 in data set [1] came to 7.65 µM. The selectivity ratio in data set [2] was > 13.1. For the same molecule, the IC50 in data set [4] was 0.53 µM. The CC50 at 48 h in [3] was > 100 µM.
On to `COC(=O)[C@@H]1Cc2cc(O)c(O)cc2[C@H](Cc2ccc(O)c(O)c2)N1C(=O)CNC(C)=O`, for which the EC50 in data set [1] was > 20 µM.
As for `COC(=O)[C@@H]1Cc2cc(O)c(O)cc2[C@H](Cc2ccc(O)c(O)c2)N1C(=O)C(F)(F)F`, in [1], the EC50 worked out at 6.76 µM. In addition, the selectivity ratio in data set [2] is 11.3. In data set [4], this molecule yielded an IC50 of 0.5 µM. Further, the CC50 at 48 h in data set [3] is 76.4 µM.
As for `O=CN1[C@H](C(=O)Oc2ccccc2)Cc2cc(O)c(O)cc2[C@@H]1Cc1ccc(O)c(O)c1`, the EC50 in data set [1] is 7.6 µM. Further, the selectivity ratio in [2] came to 10.2. The molecule further came in with an IC50 in data set [4] of 0.45 µM. For the same molecule, the CC50 at 48 h in data set [3] worked out at 77.7 µM.
Turning to `CN(C)C(=O)[C@@H]1Cc2cc(O)c(O)cc2[C@H](Cc2ccc(O)c(O)c2)N1C=O`, the EC50 in data set [1] was > 10 µM. Further, the CC50 at 48 h in data set [3] was > 100 µM.
`COC(=O)[C@@H]1Cc2cc(O)c(O)cc2[C@H](Cc2ccc(O)c(O)c2)N1C=O`: the EC50 in data set [1] worked out at 7.04 µM. Further, the selectivity ratio in [2] is > 14.2. The same molecule returned an IC50 in data set [4] of 0.68 µM. Also, in data set [3], the CC50 at 48 h is > 100 µM.
In the case of `O=CN1[C@H](C(=O)Oc2cccc(Cl)c2)Cc2cc(O)c(O)cc2[C@@H]1Cc1ccc(O)c(O)c1`, in data set [1], the EC50 was 6.09 µM. The selectivity ratio in data set [2] stood at 13.8. Further, the CC50 at 48 h in data set [3] stood at 84.3 µM.
`O=CN1[C@H](C(=O)O)Cc2cc(O)c(O)cc2[C@@H]1Cc1ccc(O)c(O)c1`: the EC50 in data set [1] was > 20 µM. The CC50 at 48 h in [3] is > 100 µM.
As to `COC(=O)[C@@H]1Cc2cc(O)c(O)cc2[C@H](Cc2ccc(O)c(O)c2)N1C(=O)CCl`, the EC50 in data set [1] came out at 6.49 µM. In data set [2], the selectivity ratio was found to be 5.3. Besides, the CC50 at 48 h in data set [3] is 34.5 µM.
For the molecule `O=CN1[C@H](C(=O)Oc2ccccc2F)Cc2cc(O)c(O)cc2[C@@H]1Cc1ccc(O)c(O)c1`, the concentration for a half-maximal effect (EC50) in data set [1] was found to be 5.23 µM. In addition, in data set [2], the selectivity ratio was found to be 11.7. In [4], this molecule registered an IC50 of 0.37 µM. Also, the CC50 at 48 h in data set [3] came to 61.2 µM.
With `CCOC(=O)[C@@H]1Cc2cc(O)c(O)cc2[C@H](Cc2ccc(O)c(O)c2)N1C=O`, in data set [1], the EC50 came to 6.88 µM. In addition, in data set [2], the selectivity ratio is > 14.5. In [3], the CC50 at 48 h is > 100 µM.
As to `CCCOC(=O)[C@@H]1Cc2cc(O)c(O)cc2[C@H](Cc2ccc(O)c(O)c2)N1C=O`, the 50% effective concentration (EC50) in data set [1] amounted to 7.72 µM. Also, the selectivity ratio in data set [2] was 9.7. The CC50 at 48 h in data set [3] came to 75.1 µM.
Take `COc1ccc(NC(=O)[C@@H]2Cc3cc(O)c(O)cc3[C@H](Cc3ccc(O)c(O)c3)N2C=O)cc1`: the EC50 in data set [1] stood at 6.12 µM. The selectivity ratio in data set [2] is 8.3. In addition, the CC50 at 48 h in data set [3] was determined as 50.9 µM.
On to `CCCC(=O)N1[C@H](C(=O)OC)Cc2cc(O)c(O)cc2[C@@H]1Cc1ccc(O)c(O)c1`, for which the EC50 in data set [1] is > 10 µM. The CC50 at 48 h in data set [3] was > 100 µM.
For the molecule `CN1CCc2cc(O)c(O)cc2C1Cc1ccc(O)c(O)c1` (racemic), the EC50 in [1] was > 20 µM. The same molecule gave an IC50 in data set [4] of 1.88 µM. In [3], the CC50 at 48 h was > 100 µM.
As for `O=CN1[C@H](C(=O)Nc2ccccc2)Cc2cc(O)c(O)cc2[C@@H]1Cc1ccc(O)c(O)c1`, in data set [1], the EC50 was > 10 µM. The CC50 at 48 h in data set [3] was > 100 µM.
For the molecule `O=CN1[C@H](C(=O)NCc2ccco2)Cc2cc(O)c(O)cc2[C@@H]1Cc1ccc(O)c(O)c1`, in [1], the EC50 was > 10 µM. In addition, in [3], the CC50 at 48 h was > 100 µM.
As to `O=CN1[C@H](C(=O)Oc2c(Cl)cccc2Cl)Cc2cc(O)c(O)cc2[C@@H]1Cc1ccc(O)c(O)c1`, the EC50 in [1] worked out at 2.57 µM. The selectivity ratio in [2] is 9.6. Further, the CC50 at 48 h in data set [3] came to 24.8 µM.
Regarding `COc1ccc(CNC(=O)[C@@H]2Cc3cc(O)c(O)cc3[C@H](Cc3ccc(O)c(O)c3)N2C=O)cc1`, the concentration for a half-maximal effect (EC50) in data set [1] was > 10 µM. For the same molecule, the CC50 at 48 h in data set [3] is > 100 µM.
Turning to `O=CN1[C@H](C(=O)NCc2ccccc2)Cc2cc(O)c(O)cc2[C@@H]1Cc1ccc(O)c(O)c1`, the EC50 in data set [1] was > 10 µM. In data set [3], the CC50 at 48 h was > 100 µM.
On to `O=CN1[C@H](C(=O)Nc2ccc(Cl)cc2)Cc2cc(O)c(O)cc2[C@@H]1Cc1ccc(O)c(O)c1`, for which the EC50 in [1] came out at 7.89 µM. In addition, the selectivity ratio in [2] is > 12.7. Further, in [3], the CC50 at 48 h is > 100 µM.
In the case of `O=CN1[C@H](C(=O)Oc2ccccc2Br)Cc2cc(O)c(O)cc2[C@@H]1Cc1ccc(O)c(O)c1`, the EC50 in data set [1] is 3.21 µM. The selectivity ratio in [2] was 17.8. In addition, in data set [4], half-maximal inhibition (IC50) was put at 0.26 µM. In addition, the CC50 at 48 h in [3] was 57.1 µM.
For the molecule `O=CN1[C@H](C(=O)Oc2ccccc2Cl)Cc2cc(O)c(O)cc2[C@@H]1Cc1ccc(O)c(O)c1`, the outcome in data set [5], in data set [6], in [7], in data set [8] and in data set [9] was Active. Also, the EC50 in [1] turned out to be 4.5 µM. Moreover, in data set [2], the selectivity ratio is > 22.2. Besides, the concentration for half-maximal inhibition (IC50) in data set [4] worked out at 0.28 µM. Besides, the CC50 at 48 h in [3] was > 100 µM.
As to `O=CN1[C@H](C(=O)Oc2ccc(Cl)cc2)Cc2cc(O)c(O)cc2[C@@H]1Cc1ccc(O)c(O)c1`, in [1], the EC50 stood at 3.86 µM. Further, the selectivity ratio in data set [2] worked out at 15. Further, in data set [3], the CC50 at 48 h is 57.6 µM.
In [4], `O=C(O[C@@H]1Cc2c(O)cc(O)cc2O[C@@H]1c1cc(O)c(O)c(O)c1)c1cc(O)c(O)c(O)c1` [EPIGALOCATECHIN GALLATE] displayed an IC50 of 5.86 µM.
Regarding `CN(Cc1ccccc1)C(=O)[C@@H]1Cc2cc(O)c(O)cc2[C@H](Cc2ccc(O)c(O)c2)N1C=O`, the EC50 in data set [1] turned out to be 8.68 µM. The selectivity ratio in data set [2] was determined as 10.6. In [3], the CC50 at 48 h is 91.9 µM.
For `O=CN1[C@H](C(=O)NCc2cccs2)Cc2cc(O)c(O)cc2[C@@H]1Cc1ccc(O)c(O)c1`, the EC50 in [1] is > 10 µM. For the same molecule, the CC50 at 48 h in [3] was > 100 µM.
With `CCC(=O)N1[C@H](C(=O)OC)Cc2cc(O)c(O)cc2[C@@H]1Cc1ccc(O)c(O)c1`, the EC50 in data set [1] is > 10 µM. Besides, in [3], the CC50 at 48 h was > 100 µM.
On to `CCN(CC)C(=O)[C@@H]1Cc2cc(O)c(O)cc2[C@H](Cc2ccc(O)c(O)c2)N1C=O`, for which the EC50 in data set [1] is > 10 µM. In data set [3], the CC50 at 48 h is > 100 µM.
As to `O=CN1[C@H](C(=O)Oc2cccc(F)c2)Cc2cc(O)c(O)cc2[C@@H]1Cc1ccc(O)c(O)c1`, the EC50 in [1] was 4.72 µM. Also, the selectivity ratio in [2] was 11.8. In addition, the CC50 at 48 h in data set [3] was 55.6 µM.

(Values after ChEMBL document CHEMBL5143520, “Discovery and optimization of new 6, 7-dihydroxy-1, 2, 3, 4-tetrahydroisoquinoline derivatives as potent influenza virus PAN inhibitors” (Eur J Med Chem, 2022).)
